Source: patent US4304781A, “Treatment of ulcers and hypertension” (John Wyeth & Brother Limited, priority 1978, dated 1981)

Experiments:
Format in all cases: in vivo
hypersecretion = experiment: Anti-secretory activity test (Shay et al); design: key to Anti-secretory, % change in Vol.: NS: Not Significant; conditions: for change in vivo at 30 mg/kg / change in vivo at 10 mg/kg: read-out: Anti-secretory, % change in Vol.; for change in vivo at 30 mg/kg / Anti-secretory, % change in Vol.: 30 mg/kg
Method: (§1) Anti-ulcer activity was determined by the stress-induced erosion test of Senay & Levine, Proc. Soc. Exp. Biol. Med., 124, 1221-1223 (1967) and anti-secretory activity by the test of H. Shay, D. Sun and H. Greenstin, Gastroenterology, 1954, 26, 903-913 as exemplified by Beattie et al J. Med. Chem., 20, 714 (1977). […] However, some compounds show activity in tests for anti-hypertensive activity.

stress-induced erosion = experiment: Stress-induced erosion test (Senay & Levine), anti-ulcer activity
Method: as §1

[1] = test system: male spontaneously hypertensive rats; experiment: Antihypertensive activity, Procedure A: systolic pressure of spontaneously hypertensive rats; conditions: 50 mg/kg orally
Method: Systolic pressure of male spontaneously hypertensive rats is measured by an indirect technique using the Decker Caudal Plethysmograph or other appropriate sensor. Groups usually consist of 4 rats. Drugs are usually administered orally. Pressures are usually read prior to drug administration and at 1.5, 4 and 24 hours thereafter. This schedule may be altered depending upon the behaviour of the drug.

| Structure (SMILES) | change in vivo at 30 mg/kg (hypersecretion) | inhibition in vivo at 100 mg/kg (stress-induced erosion) | Anti-secretory, % change in Vol. (hypersecretion) | other results |
| --- | --- | --- | --- | --- |
| CCOC(OCC)c1ccc[n+](-c2ccccc2)c1SCc1ccccc1 [Example 19, 2-Benzylthio-3-(diethoxy)methyl-1-phenylpyridinium chloride] | -88% |  |  |  |
| C[n+]1ccccc1SCCCCc1ccccc1 [Example 40, 1-Methyl-2-((4-phenylbutyl)thio)pyridinium bromide] | -36% | 67% |  |  |
| C[n+]1ccccc1SCc1ccccc1Cl [Example 27, 2-((2-Chlorobenzyl)thio)-1-methylpyridinium chloride] | -66% |  |  | change in vivo at 10 mg/kg (hypersecretion): -39% |
| C[n+]1ccccc1SCc1ccc(F)cc1 [Example 21, 2((4-Fluorobenzyl)thio)-1-methylpyridinium chloride] | -67% | 82% |  | inhibition in vivo at 30 mg/kg (stress-induced erosion): 71% |
| Clc1cccc(CSc2ccncc2)c1 [Example 31, 4((3-Chloro)benzylthio)pyridine] | -34% | 62% |  |  |
| C[n+]1ccccc1SCC=Cc1ccccc1 [Example 16, 2-Cinnamylthio-1-methylpyridinium bromide] | -55% |  |  |  |
| C[n+]1ccccc1SCc1cccc(C(F)(F)F)c1 [Example 37, 1-Methyl-2-((3-trifluoromethylbenzyl)thio)pyridinium chloride] |  |  | NS | Antihypertensive activity (Procedure A) [1]: showed activity |
| c1ccc(CSc2ccccn2)cc1 [Example 38, 2-((Benzyl)thio)pyridine] | -32% |  |  |  |
| Cc1ccccc1CSc1cccc[n+]1C [Example 33, 1-Methyl-2-((2-methyl)benzylthio)pyridinium bromide] |  | 73% | NS |  |
| C[n+]1ccccc1SCc1ccc(OCc2ccccc2)cc1 [Example 14, 2-(((4-Benzyloxy)benzyl)thio)-1-methylpyridinium chloride] | -49% | 90% |  | inhibition in vivo at 10 mg/kg (stress-induced erosion; 10 mg/kg): 60%; inhibition in vivo at 30 mg/kg (stress-induced erosion): 73%; change in vivo at 10 mg/kg (hypersecretion): -19% |
| Cc1ccc(CSc2cccc[n+]2C)cc1 [Example 10, 1-Methyl-2(4-methylbenzylthio)pyridinium bromide] | -43% |  |  |  |
| C[n+]1cccc(C=O)c1SCc1ccccc1 [Example 29, 2-Benzylthio-3-formyl-1-methylpyridinium bromide] | -48% | 71% |  |  |
| COc1cccc(CSc2cccc[n+]2C)c1 [Example 36, 2-((3-Methoxybenzyl)thio)-1-methylpryridinum chloride] |  | 69% | NS |  |
| C[n+]1ccccc1SCc1ccccc1F [Example 20, 2-((2-Fluorobenzyl)thio)-1-methyloyridinium chloride] | -90% | 70% |  | inhibition in vivo at 30 mg/kg (stress-induced erosion): 76%; change in vivo at 10 mg/kg (hypersecretion): -54% |
| C[n+]1ccccc1SCc1cccc(F)c1 [Example 22, 2-((-3-Fluorobenzyl)thio)-1-methylpyridinium chloride] | -69% | 72% |  | inhibition in vivo at 30 mg/kg (stress-induced erosion): 64% |
| O=[N+]([O-])c1ccc(C[n+]2ccccc2SCc2ccccc2)cc1 [Example 41, 1-(4-Nitrobenzyl)-2-(benzylthio)-pyridinium bromide] |  | 69% | NS |  |
| C[n+]1ccccc1SCc1ccccc1 [Example 1, 2-Benzylthio-1-methylpyridinium bromide] | -71% | 75% |  | inhibition in vivo at 30 mg/kg (stress-induced erosion): 92% |
| C[n+]1ccccc1SCc1cc(Cl)cc(Cl)c1 [Example 28, 2-(3,5-Dichlorobenzyl)thio)-1-methylpyridinium chloride] | -55% |  |  |  |

| Structure (SMILES) | change in vivo at 30 mg/kg (hypersecretion) | inhibition in vivo at 100 mg/kg (stress-induced erosion) | Anti-secretory, % change in Vol. (hypersecretion) | other results |
| --- | --- | --- | --- | --- |
| C[n+]1ccccc1SCc1ccc(Br)cc1 [Example 13, 2-(4-Bromobenzylthio)-1-methylpyridinium bromide] |  | 70% | NS | inhibition in vivo at 30 mg/kg (stress-induced erosion): 73% |
| OCc1ccc[n+](-c2ccccc2)c1SCc1ccccc1 [Example 30, 2-Benzylthio-3-hydroxymethyl-1-phenylpyridinium bromide] | -42% | 71% |  |  |
| Cc1ccc(CSc2cccc[n+]2C)cc1C [Example 8, 1-Methyl-2-(3,4-dimethylbenzylthio)pyridinium chloride] |  | 62% | NS | inhibition in vivo at 30 mg/kg (stress-induced erosion): 70% |
| C[n+]1ccccc1SCc1cccc(I)c1 [Example 35, 2-((3-Iodobenzyl)thio)-1-methylpyridinium chloride] | -41% | 67% |  |  |
| c1ccc(CSc2ccncc2)cc1 [Example 34, 4-Benzylmercaptopyridine] |  | 64% | NS |  |
| C[n+]1ccccc1SCc1ccc([N+](=O)[O-])cc1 [Example 6, 1-Methyl-2-(4-nitrobenzylthio)pyridinium bromide] |  | 84% | NS |  |
| Cc1cccc(CSc2cccc[n+]2C)c1 [Example 25, 1-Methyl-2-((3-methylbenzyl)thio)pyridinium chloride] | -69% | 80% |  | inhibition in vivo at 30 mg/kg (stress-induced erosion): 75% |
| C[n+]1ccc(SCc2cccc(Cl)c2)cc1 [Example 24, 4-((3-Chlorobenzyl)thio)-1-methylpyridinium chloride] | -40% | 23% |  | inhibition in vivo at 30 mg/kg (stress-induced erosion): 60% |
| COc1ccc(CSc2cccc[n+]2C)cc1 [Example 26, 2-((4-Methoxybenzyl)thio)-1-methylpyridinium chloride] | -46% |  |  |  |
| CC(CSc1cccc[n+]1C)c1ccccc1 (stereo not shown) [Example 9, 1-Methyl-2-(2-phenylpropylthio)pyridinium bromide] | -32% |  |  |  |
| C[n+]1ccc(SCc2ccccc2)cc1 [Example 23, 4-Benzylthio-1-methylpyridinium bromide] |  | 80% | NS | inhibition in vivo at 30 mg/kg (stress-induced erosion): 70% |
| c1ccc(CSc2cccc[n+]2Cc2ccccc2)cc1 [Example 45, 1-Benzyl-2-(benzylthio)pyridinium bromide] | -75% |  |  |  |
| C[n+]1ccccc1SCc1cccc([N+](=O)[O-])c1 [Example 32, 1-Methyl-2-((3-nitro)benzylthio)pyridinium chloride] |  | 73% | NS |  |
| C[N+]1=C(SCc2ccccc2)CCCC1 [Example 44, 2-Benzylthio-3,4,5,6-tetrahydro-1-methylpyridinium bromide] | -52% |  |  |  |
| C[n+]1ccccc1SC(c1ccccc1)c1ccccc1 [Example 39, 2-((Diphenylmethyl)thio)-1-methyloyridinium bromide] |  |  | NS | Antihypertensive activity (Procedure A) [1]: showed activity |
| c1ccc(CSC2=NCCCC2)cc1 [Example 43, 2-Benzylthio-3,4,5,6-tetrahydropyridine] | -48% |  |  |  |
| C[n+]1ccccc1SCCCc1ccccc1 [Example 7, 1-Methyl-2-(3-phenylpropylthio)pyridinium bromide] |  | 77% | NS |  |
